# Several values for one entry are separate records, joined by “and”; a condition that tells them apart may be missing. Equal values may be shown once.
# Key:
# [1] = test system: reverse yeast three-hybrid strain; assay: 5-FOA effect on growth of reverse yeast three-hybrid strain; assay type: cell-based, Saccharomyces cerevisiae; details: 5-FOA concentrations beyond 0.3%
# From the text: First, we recombined the URA3 gene at the ura3-52 locus of our chemical complementation yeast strain, FY251, and selected for Ura^+ phenotype on medium lacking uracil to create VC2169. Next, the vectors carrying the DBD-DHFR and GR-B42 constructs were introduced into VC2169 and selected on plates lacking uracil, histidine, and tryptophan to create VC2291. Finally, we introduced the LexA(4op) and the Spo13 promoter upstream of the URA3 gene and selected for Ura^− phenotype on medium containing 5-FOA. This selection provided numerous reverse three-hybrid colonies. Three colonies were used to optimize the reverse yeast three-hybrid system for the highest fold increase in activation in the presence of 10 μM Mtx-Dex by measuring the difference between cell survival and cell death. Mtx-Dex was used, instead of Mtx-Cel-Dex, for the optimization of the system as the cellulose linker is not necessary for the system's functioning, and the synthesis of Mtx-Dex is simpler than that of Mtx-Cel-Dex. The system was optimized by varying the level of galactose, which affects the concentration of DBD-DHFR and AD-GR in the system, and 5-FOA, which controls the toxicity level of the reporter gene. Galactose levels ranging from 1 to 2% and 5-FOA concentrations ranging from 0.1 to 0.5% were tested simultaneously. […]
# [2] = test system: D-2-deoxyribose-5-phosphate aldolase (DERA) variant; details: directed evolution with in vitro screen; DeSantis et al., 2003; cited from earlier work
# [3] = test system: O=[N+]([O-])c1ccc(O[C@@H]2O[C@H](CO)[C@@H](O[C@@H]3O[C@H](CO)[C@@H](O)[C@H](O)[C@H]3O)[C@H](O)[C@H]2O)cc1; assay: Steady-state kinetics of pNPC hydrolysis (release of p-nitrophenol), CelT = CelV; assay type: biochemical, Erwinia carotovora; details: other: pNPC, pH 7, room temperature
# From the text: (§1) The DNA shuffling vector, pPPY2148, was constructed by digesting p425Met25 (ATCC) with HindIII and PstI and introducing an 800 bp stuffer flanked by SfiI sites. The catalytic domain of four family 5 cellulases with 77-90% sequence identity, E. carotovora CelN (Olsen et al., 1996, Biotechnology (N Y) 14:71-76), CelVI (Mae and Palva, 1995, Mol Gen Genet. 247:17-26), CelA (Park et al., 1997, Biochem Biophys Res Commun. 241:636-641) and CelT (cloned from the E. carotovora subs. atroceptica (Bell et al., 2004, Proc Natl Acad Sci USA. 101: 11105-11110) genomic DNA) were cloned into pPY2148 to create plasmids pPPY2230, pPPY2232, pPPY2234 and pPPY2236 respectively. A ^6His-tag was added at the C-terminus of the four parent genes to facilitate protein purification after selection. The catalytic domain of these cellulases was identified by sequence comparison with the catalytic domain of Bacillus agaradhaerens Cel5A, which has 68% sequence identity at the amino acid level with the parent genes and which three dimensional X-ray structure is available (Davies et al., 1998, Biochemistry 37: 1926-1932; Davies et al., 1998, Biochemistry 37: 11707-11713; Varrot et al., 2000, J Mol Biol. 297: 819-828; Varrot et al., 2001, Acta Crystallogr D Biol Crystallogr. 57: 1739-1742; Varrot and Davies, 2003, Acta Crystallogr D Biol Crystallogr. 59: 447-452). The cellulase genes were shuffled using standard procedures with slight variations (Zhao and Arnold, 1997, Nucleic Acids Res. 25: 1307-1308). To introduce the shuffled product into the shuffling vector via homologous recombination, 30 bp homology to the shuffling vector was introduced at the 5′ and 3′ end of the shuffled product by carrying an extra amplification step of the shuffling product primers VC1658-VC1659. 7.5 ng of shuffled product (1.4E11 shuffled product molecules assuming each base pair is 330M and the shuffled product was 1000 bp) was used as a template in a 100 ul amplification reaction. The product was purified in a 2% agarose gel.
# (§2) Ten colonies selected on day 8 and 9 were characterized in vitro using para-nitrophenyl cellobioside (pNPC) as a substrate. The cellulase chimeras were amplified from the shuffling vector using primers PPY100 and PPY103 and subcloned into the T7-expression vectors pAED4 between NdeI and HindIII sites. The cellulase chimeras were over expressed in E. coli and purified using a Nickel affinity column. Protein concentration was determined using the extinction coefficient of the parent genes ε=76890 and absorption at A280. To determine the kinetic constants for the hydrolysis of pNPC, the cellulase chimeras were incubated at room temperature in phosphate buffer (25 mM K2HPO4, 100 mM NaCl, pH=7) containing various concentrations of the substrate, and the release of p-nitrophenol (εpH=7=4000M^−1 cm^−1, A420) was recorded continuously in a SpectraMax Plus 384 spectrophotometer.
# (§3) The three starting cellulases and the improved cellulase variants were subcloned into the E. coli T7 vector, pAED4, between NdeI and HindIII sites to give vectors pPPY2256 (CelN), pPPY2258 (CelA), pPPY2257 (CelV), pPPY2291 (Cel—3.7), and pPPY2292 (Cel—5.7). The cellulases were purified using Quick spin Ni-NTA affinity column (Qiagen). Protein concentration was determined using the extinction coefficient of the starting genes (ε=76670) and absorption at 280 nm. […] The release of p-nitrophenol (εpH 7=4000M−1 cm−1, A420) was recorded continuously in a SpectraMax Plus 384 spectrophotometer at 420 nm.
# [4] = test system: O=[N+]([O-])c1ccc(O[C@@H]2O[C@H](CO)[C@@H](O[C@@H]3O[C@H](CO)[C@@H](O)[C@H](O)[C@H]3O)[C@H](O)[C@H]2O)cc1; assay: Steady-state kinetics of pNPC hydrolysis (release of p-nitrophenol), CelN; assay type: biochemical, Erwinia carotovora; details: other: pNPC, pH 7, room temperature
# From the text: as §1, §2, §3
# [5] = biological target: lipocalin (de novo selected); details: Beste et al., 1999; read-out: dissociation constant; cited from earlier work
# [6] = test system: Erwinia carotovora shuffled cellulase variant Cellulase 4 (CELLVAR1, Colony 1), SEQ ID NO:3; assay: Steady-state kinetics of pNPC hydrolysis, Cellulase 4; assay type: biochemical; details: pH 7, room temperature
# Method: as §2
# (§4) The three starting cellulases and the improved cellulase variants were subcloned into the E. coli T7 vector, pAED4, between NdeI and HindIII sites to give vectors pPPY2256 (CelN), pPPY2258 (CelA), pPPY2257 (CelV), pPPY2291 (Cel—3.7), and pPPY2292 (Cel—5.7). The cellulases were purified using Quick spin Ni-NTA affinity column (Qiagen). Protein concentration was determined using the extinction coefficient of the starting genes (ε=76670) and absorption at 280 nm. To determine the kinetic constants for the hydrolysis of pNPC, the cellulase chimeras were incubated at room temperature in phosphate buffer (25 mM K2HPO4, 100 mM NaCl, pH 7) containing seven different concentrations of pNPC ranging from 12 mM to 0.185 mM. The release of p-nitrophenol (εpH 7=4000M−1 cm−1, A420) was recorded continuously in a SpectraMax Plus 384 spectrophotometer at 420 nm.
# [7] = test system: Erwinia carotovora shuffled cellulase variant Cellulase 7, SEQ ID NO:14; assay: Steady-state kinetics of pNPC hydrolysis, Cellulase 7; assay type: biochemical; details: pH 7, room temperature
# Method: as §2, §4
# [8] = test system: Erwinia carotovora shuffled cellulase variant Cellulase 8, SEQ ID NO:16; assay: Steady-state kinetics of pNPC hydrolysis, Cellulase 8; assay type: biochemical; details: pH 7, room temperature
# Method: as §2, §4
# [9] = test system: Erwinia carotovora CelN/CelA/CelV shuffled variant Cellulase 2 (Cel_5.7), vs CelN: A86V, S126N, E154D, T172S, C208R, T262S, A267T, A272T; SEQ ID NO:6; assay: Steady-state kinetics of pNPC hydrolysis, Cellulase 2; assay type: biochemical
# Method: as §2, §4
# A homology model of Cel—5.7 (cellulase 2) was made, again utilizing the same structure of B. agaradherans Cel5A, using Swiss-Model (FIG. 28b)^38. Four mutations are in the C-terminus loops that compose the extended carbohydrate binding site, while the other 4 map onto the surface of the enzyme. Although mutation T172S is located in C-terminus loop 5, it is 15 Å away from closest hexose ring in the substrate inhibitor. Mutations T262S, A267T, A272T are located in C-terminus loop 8. The mutation T262S is the closest to the substrate inhibitor, 6 Å away from the 6′-OH of the hexose ring in the −3 subsite. […] This mutation is located at the N-terminus of the barrel and points towards the solvent.
# [10] = test system: Erwinia carotovora shuffled cellulase variant Cellulase 6, SEQ ID NO:12; assay: Steady-state kinetics of pNPC hydrolysis, Cellulase 6; assay type: biochemical; details: pH 7, room temperature
# Method: as §2, §4
# [11] = test system: Erwinia carotovora shuffled cellulase variant Cellulase 3, SEQ ID NO:8; assay: Steady-state kinetics of pNPC hydrolysis, Cellulase 3; assay type: biochemical; details: pH 7, room temperature
# Method: as §2, §4
# [12] = test system: Erwinia carotovora cellulase CelA (Cellulase A), catalytic domain, parent; assay: Steady-state kinetics of pNPC hydrolysis (release of p-nitrophenol), CelA; assay type: biochemical; details: pH 7, room temperature
# From the text: as §1, with “To introduce the shuffled product into the shuffling vector via homologous recombination, 30 bp homology to the shuffling vector was introduced at the 5′ and 3′ end of the shuffled product by carrying an extra amplification step of the shuffling product primers VC1658-VC1659. 7.5 ng of shuffled product (1.4E11 shuffled product molecules assuming each base pair is 330M and the shuffled product was 1000 bp) was used as a template in a 100 ul amplification reaction. The product was purified in a 2% agarose gel.” left out
# as §2, with “The cellulase chimeras were amplified from the shuffling vector using primers PPY100 and PPY103 and subcloned into the T7-expression vectors pAED4 between NdeI and HindIII sites. The cellulase chimeras were over expressed in E. coli and purified using a Nickel affinity column.” left out
# as §3, with “The cellulases were purified using Quick spin Ni-NTA affinity column (Qiagen).” left out
# [13] = test system: Erwinia carotovora CelN/CelA/CelV shuffled variant Cellulase 1 (CELLVAR2, Colony 2, Cel_3.7), vs CelN: S126N, D157E, Q186L, L193M, V2541, T288A, E295A, G30A …; assay: Steady-state kinetics of pNPC hydrolysis, Cellulase 1; assay type: biochemical
# Method: as §2, §4
# Cel—3.7 (cellulase 1) contains nine crossovers. […] A homology model of Cel—3.7 (cellulase 1) was made, utilizing the B. agaradherans Cel5A structure (SwissProt: O85465; PDB: 1h5v) with the inhibitor methyl 4,4II,4III,4IV-tetrathio-α-cellopentoside bound to the active site, using Swiss-Model (FIG. 28A). The eight mutations accessible with the homology model map onto the surface of the enzyme, away from the extended carbohydrate binding site.
# [14] = test system: Erwinia carotovora shuffled cellulase variant Cellulase 5, SEQ ID NO:10; assay: Steady-state kinetics of pNPC hydrolysis, Cellulase 5; assay type: biochemical; details: pH 7, room temperature
# Method: as §2, §4
# [15] = biological target: Erwinia carotovora cellulase CelV (Cellulase V; = CelT, Cellulase T), catalytic domain, parent (Pectobacterium atrosepticum, UniProt Q6D5R0); assay: Steady-state kinetics of pNPC hydrolysis (release of p-nitrophenol), CelT = CelV; assay type: biochemical; details: pH 7, room temperature
# From the text: as §1, §2, §3
# [16] = biological target: Erwinia carotovora cellulase CelN (Cellulase N), catalytic domain, parent (Pectobacterium atrosepticum, UniProt Q59394); assay: Steady-state kinetics of pNPC hydrolysis (release of p-nitrophenol), CelN; assay type: biochemical; details: pH 7, room temperature
# From the text: as §1, §2, §3
compound,measurement,setting,value
"O=C(O)c1[nH]c(=O)[nH]c(=O)c1F [5-FOA, 5-fluoroorotic acid]",effect on cell growth,[1],detrimental for cell growth
O=C[C@H](O)CO [D-glyceraldehyde],improvement in catalytic efficiency,[2],2.5 fold
"Erwinia carotovora cellulase CelV (Cellulase V; = CelT, Cellulase T), catalytic domain, parent (Pectobacterium atrosepticum SCRI1043)",Km,[3],4600 µM
same,kcat,[3],1100 s⁻¹
same,kcat/Km,[3],237000 M⁻¹ s⁻¹
"Erwinia carotovora cellulase CelN (Cellulase N), catalytic domain, parent (Pectobacterium atrosepticum)",Km,[4],3400 µM
same,kcat,[4],1300 s⁻¹
same,kcat/Km,[4],374000 M⁻¹ s⁻¹
O=C1OC2(c3ccc(O)cc3Oc3cc(O)ccc32)c2ccccc21 [fluorescein],Kd,[5],65 nM
"O=[N+]([O-])c1ccc(O[C@@H]2O[C@H](CO)[C@@H](O[C@@H]3O[C@H](CO)[C@@H](O)[C@H](O)[C@H]3O)[C@H](O)[C@H]2O)cc1 [pNPC, p-nitrophenyl cellobioside]",Kcat,[6],16000 s⁻¹
same,Kcat/KM,[6],1.2e+07 M⁻¹ s⁻¹
same,Kcat/Km,[6],1.1e+07 M⁻¹ s⁻¹
same,Km,[6],1300 µM
same,Kcat,[7],110 s⁻¹
same,Kcat/Km,[7],8120 M⁻¹ s⁻¹ and 8100 M⁻¹ s⁻¹
same,Km,[7],14000 µM
same,Kcat,[8],840 s⁻¹
same,Kcat/Km,[8],200000 M⁻¹ s⁻¹
same,Km,[8],4300 µM
same,Kcat,"[9]; pH 7, room temperature",5200 s⁻¹
same,Kcat/Km,"[9]; pH 7, room temperature",2.1 × 10^6 sec^−1M^−1 and 2.1 × 10^6 M^−1sec^−1
same,Km,"[9]; pH 7, room temperature",2500 µM and 2470 µM
same,"increase in catalytic efficiency over the best starting cellulase, CelN",[9]; relative to CelN,5.3 fold and 5.7 fold
same,Kcat,[10],210 s⁻¹
same,Kcat/Km,[10],220000 M⁻¹ s⁻¹
same,Km,[10],960 µM and 1000 µM
same,Kcat,[11],5000 s⁻¹
same,Kcat/Km,[11],1.4 × 10^6 sec^−1M^−1 and 1.4 × 10^6 M^−1sec^−1
same,Km,[11],3600 µM
same,Kcat,[12],1400 s⁻¹
same,Kcat/KM,[12],193000 M⁻¹ s⁻¹
same,Kcat/Km,[12],192000 M⁻¹ s⁻¹
same,Km,[12],7200 µM
same,Kcat,"[13]; pH 7, room temperature",4300 s⁻¹
same,Kcat/KM,"[13]; pH 7, room temperature",1.3e+06 M⁻¹ s⁻¹
same,Kcat/Km,"[13]; pH 7, room temperature",1.4 × 10^6 sec^−1M^−1 and 1.4 × 10^6 M^−1sec^−1
same,Km,"[13]; pH 7, room temperature",3200 µM
same,"increase in catalytic efficiency over the best starting cellulase, CelN",[13]; relative to CelN,3.6 fold and 3.7 fold
same,Kcat,[14],6700 s⁻¹
same,Kcat/Km,[14],4.5e+06 M⁻¹ s⁻¹
same,Km,[14],1500 µM
same,Kcat,[15],1100 s⁻¹
same,Kcat/Km,[15],240000 M⁻¹ s⁻¹
same,Kcat,[16],1300 s⁻¹
same,Kcat/Km,[16],370000 M⁻¹ s⁻¹

# Reference: patent US9169481B2, “Cell-mediated directed evolution” (priority 2006, dated 2015)
